Laboratory results: PubChem BioAssay (NCI)
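Following 48 hours of exposure in 96-well plates, responses at five concentrations were used to interpolate endpoints linearly. Here, GI50 denotes the concentration required for 50% inhibition of growth. Definition used: TGI = concentration required for complete inhibition of growth.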

Legend:
Test in all cases: NCI tumour cell line growth inhibition, 48 h
[1] = test system: MALME-3M melanoma
[2] = test system: LXFL 529 NSCLC
[3] = test system: HCT-15 colon
[4] = test system: KM20L2 colon
[5] = test system: SN12C renal
[6] = test system: CAKI-1 renal
[7] = test system: HL-60(TB) leukemia
[8] = test system: SNB-19 CNS
[9] = test system: RPMI-8226 leukemia
[10] = test system: DMS 114 small cell lung
[11] = test system: SK-MEL-28 melanoma
[12] = test system: SW-620 colon
[13] = test system: HCC-2998 colon
[14] = test system: DLD-1 colon
[15] = test system: HOP-62 NSCLC
[16] = test system: HOP-92 NSCLC
[17] = test system: M19-MEL melanoma
[18] = test system: ACHN renal
[19] = test system: TK-10 renal
[20] = test system: UACC-257 melanoma
[21] = test system: SK-OV-3 ovarian
[22] = test system: A498 renal
[23] = test system: SF-268 CNS
[24] = test system: M14 melanoma
[25] = test system: OVCAR-8 ovarian
[26] = test system: U251 CNS
[27] = test system: 786-0 renal
[28] = test system: CCRF-CEM leukemia
[29] = test system: NCI-H460 lung
[30] = test system: NCI-H522 lung
[31] = test system: MOLT-4 leukemia
[32] = test system: HT29 colon
[33] = test system: SF-539 CNS
[34] = test system: EKVX NSCLC
[35] = test system: SNB-78 CNS
[36] = test system: OVCAR-4 ovarian
[37] = test system: OVCAR-3 ovarian
[38] = test system: NCI-H23 lung
[39] = test system: LOX IMVI melanoma
[40] = test system: K-562 leukemia
[41] = test system: KM12 colon
[42] = test system: UO-31 renal
[43] = test system: DMS 273 small cell lung
[44] = test system: XF 498 CNS
[45] = test system: RXF 393 renal
[46] = test system: SF-295 CNS
[47] = test system: SK-MEL-5 melanoma
[48] = test system: IGROV1 ovarian
[49] = test system: RXF-631 renal
[50] = test system: UACC-62 melanoma
[51] = test system: COLO 205 colon
[52] = test system: SR leukemia
[53] = test system: NCI-H226 lung
[54] = test system: OVCAR-5 ovarian
[55] = test system: SNB-75 CNS
[56] = test system: HCT-116 colon
[57] = test system: A549 NSCLC
[58] = test system: SK-MEL-2 melanoma
[59] = test system: HOP-18 NSCLC

## O=C(COC(=O)c1cccc2c(=O)c3ccccc3[nH]c12)Nc1ccc(S(=O)(=O)Nc2ncccn2)cc1
[1]
  TGI: > 100 µM
[2]
  TGI: > 100 µM
[3]
  TGI: > 100 µM
[4]
  TGI: > 100 µM
[5]
  TGI: > 100 µM
[6]
  TGI: > 100 µM
[7]
  TGI: 71.3 µM
[8]
  TGI: 93.2 µM
[9]
  TGI: > 100 µM
[10]
  TGI: > 100 µM
[11]
  TGI: > 100 µM
[12]
  TGI: > 100 µM
[13]
  TGI: > 100 µM
[14]
  TGI: > 100 µM
[15]
  TGI: > 100 µM
[16]
  TGI: 51 µM
[17]
  TGI: > 100 µM
[18]
  TGI: > 100 µM
[19]
  TGI: > 100 µM
[20]
  TGI: > 100 µM
[21]
  TGI: > 100 µM
[22]
  TGI: > 100 µM
[23]
  TGI: > 100 µM
[24]
  TGI: > 100 µM
[25]
  TGI: > 100 µM
[26]
  TGI: 56.3 µM
[27]
  TGI: > 100 µM
[28]
  TGI: 67.4 µM
[29]
  TGI: > 100 µM
[30]
  TGI: 58.2 µM
[31]
  TGI: 71 µM
[32]
  TGI: > 100 µM
[33]
  TGI: 39.1 µM
[34]
  TGI: > 100 µM
[35]
  TGI: 74.4 µM
[36]
  TGI: > 100 µM
[37]
  TGI: 51.7 µM
[38]
  TGI: > 100 µM
[39]
  TGI: > 100 µM
[40]
  TGI: 90.7 µM
[41]
  TGI: > 100 µM
[42]
  TGI: > 100 µM
[43]
  TGI: > 100 µM
[44]
  TGI: > 100 µM
[45]
  TGI: > 100 µM
[46]
  TGI: > 100 µM
[47]
  TGI: > 100 µM
[48]
  TGI: > 100 µM
[49]
  TGI: > 100 µM
[50]
  TGI: 39.7 µM
[51]
  TGI: > 100 µM
[52]
  TGI: 91 µM
[53]
  TGI: > 100 µM
[54]
  TGI: > 100 µM
[55]
  TGI: 92.7 µM
[56]
  TGI: > 100 µM
[57]
  TGI: > 100 µM

## CC(C)c1cc(C(=O)[O-])c(O)c(C(C)C)c1.CC(C)c1cc(C(=O)[O-])c(O)c(C(C)C)c1.CC(C)c1cc(C(=O)[O-])c(O)c(C(C)C)c1.CC(C)c1cc(C(=O)[O-])c(O)c(C(C)C)c1.CC(C)c1cc(C(=O)[O-])c(O)c(C(C)C)c1.CC(C)c1cc(C(=O)[O-])c(O)c(C(C)C)c1.[Cu+2].[Mn+2].[Mn+2]
[58]
  GI50: 20.4 µM
  TGI: 42.6 µM
[1]
  GI50: 15.1 µM
  TGI: 28.7 µM
[2]
  GI50: 19.6 µM
  TGI: 46.3 µM
[3]
  GI50: 39.3 µM
  TGI: > 100 µM
[4]
  GI50: 26.1 µM
  TGI: > 100 µM
[59]
  GI50: 13.3 µM
  TGI: 29.1 µM
[5]
  GI50: 20.9 µM
  TGI: 49 µM
[6]
  GI50: 30.9 µM
  TGI: 53.3 µM
[7]
  GI50: 17.7 µM
  TGI: 53.9 µM
[8]
  GI50: 20.8 µM
  TGI: 47.8 µM
[9]
  GI50: 14.5 µM
  TGI: 50.4 µM
[10]
  GI50: 17.8 µM
  TGI: 34.6 µM
[11]
  GI50: 20.5 µM
  TGI: 45.3 µM
[12]
  GI50: 14.8 µM
  TGI: 29.5 µM
[14]
  GI50: 17.8 µM
  TGI: 35.9 µM
[15]
  GI50: 21 µM
  TGI: 42 µM
[16]
  GI50: 19.9 µM
  TGI: 54 µM
[17]
  GI50: 5.67 µM
  TGI: 18.7 µM
[18]
  GI50: 31.7 µM
  TGI: > 100 µM
[19]
  GI50: 39.5 µM
  TGI: 91.7 µM
[20]
  GI50: 29.6 µM
  TGI: 67.1 µM
[21]
  GI50: 2.61 µM
  TGI: 16.1 µM
[22]
  GI50: 34.1 µM
  TGI: 82.2 µM
[23]
  GI50: 35.5 µM
  TGI: 82.7 µM
[24]
  GI50: 14.8 µM
  TGI: 30.4 µM
[25]
  GI50: 29.3 µM
  TGI: 81 µM
[26]
  GI50: 9.43 µM
  TGI: 22.7 µM
[27]
  GI50: 20.3 µM
  TGI: 46.9 µM
[28]
  GI50: 15.8 µM
  TGI: 42.8 µM
[29]
  GI50: 15.8 µM
  TGI: 32.2 µM
[30]
  GI50: 10.9 µM
  TGI: 25.1 µM
[31]
  GI50: 20.3 µM
  TGI: 66.1 µM
[32]
  GI50: 15.6 µM
  TGI: 31.4 µM
[33]
  GI50: 22.1 µM
  TGI: 39.8 µM
[34]
  GI50: 23.3 µM
  TGI: > 100 µM
[35]
  GI50: 37 µM
  TGI: > 100 µM
[36]
  GI50: 16.1 µM
  TGI: 47.8 µM
[37]
  GI50: 2.87 µM
  TGI: 10.4 µM
[38]
  GI50: 20.1 µM
  TGI: 45.6 µM
[39]
  GI50: 17 µM
  TGI: 36.3 µM
[40]
  GI50: 12.8 µM
  TGI: 50.4 µM
[41]
  GI50: 18.2 µM
  TGI: 43.4 µM
[42]
  GI50: 16.5 µM
  TGI: 32.6 µM
[43]
  GI50: 22.4 µM
  TGI: > 100 µM
[44]
  GI50: 30.2 µM
  TGI: 71.5 µM
[46]
  GI50: 18.1 µM
  TGI: 49.5 µM
[47]
  GI50: 17.1 µM
  TGI: 32.3 µM
[48]
  GI50: 15.2 µM
  TGI: 38.4 µM
[50]
  GI50: 15.3 µM
  TGI: 34.4 µM
[51]
  GI50: 10.9 µM
  TGI: 25.6 µM
[54]
  GI50: 28.2 µM
  TGI: 49.3 µM
[55]
  GI50: 24.8 µM
  TGI: 68.7 µM
[56]
  GI50: 21.2 µM
  TGI: 37.8 µM
[57]
  GI50: 11.1 µM
  TGI: 33.8 µM
